# Read-outs that look alike come from different tables or passages of the source.
# Assays:
# bio burden = conditions: for Log reduction in bio burden: KIMGUARD bag, air RH=20% at 12 m/s over exterior
# [1] = rabbits, EU criteria (ECETOC, 1996); solution of 35% or less; cited from earlier work
substance,measurement,setting,value
hydrogen peroxide [H2O2],Pennicylinders Plate count,"bio burden; Expt A: initial H2O2 10%, nebulizer 2/18 sec ON/Off for 2 mins, total exposure 5 mins, 40 °C in bag",0
same,Pennicylinders Log reduction of bio burden,"bio burden; Expt A: initial H2O2 10%, nebulizer 2/18 sec ON/Off for 2 mins, total exposure 5 mins, 40 °C in bag, 0.0338 g/L delivered",6.0
same,Pennicylinders Plate count,"bio burden; Expt B: initial H2O2 30%, nebulizer 8/12 sec ON/Off for 2 mins, total exposure 2 mins, 44 °C in bag",0
same,Pennicylinders Log reduction of bio burden,"bio burden; Expt B: initial H2O2 30%, nebulizer 8/12 sec ON/Off for 2 mins, total exposure 2 mins, 44 °C in bag, 0.246 g/L delivered",6.0
same,Log reduction in bio burden,bio burden; within 2 minutes nebulising a 30% peroxide solution,6
same,Log reduction in bio burden,bio burden; within 5 minutes nebulising a 10% peroxide solution,6
same,Classification as skin irritant,[1],would not be classified as skin irritants
